{"source": "ChEMBL document CHEMBL5365464", "about": "“Structure-Based Optimization of the Third Generation Type II Macrocycle TRK Inhibitors with Improved Activity against Solvent-Front, xDFG, and Gatekeeper Mutations” (J Med Chem, 2023)", "key": {"[1]": {"molecular_target": "Muscle, skeletal receptor tyrosine-protein kinase (Homo sapiens, UniProt O15146)", "sequence (O15146 whole entry)": "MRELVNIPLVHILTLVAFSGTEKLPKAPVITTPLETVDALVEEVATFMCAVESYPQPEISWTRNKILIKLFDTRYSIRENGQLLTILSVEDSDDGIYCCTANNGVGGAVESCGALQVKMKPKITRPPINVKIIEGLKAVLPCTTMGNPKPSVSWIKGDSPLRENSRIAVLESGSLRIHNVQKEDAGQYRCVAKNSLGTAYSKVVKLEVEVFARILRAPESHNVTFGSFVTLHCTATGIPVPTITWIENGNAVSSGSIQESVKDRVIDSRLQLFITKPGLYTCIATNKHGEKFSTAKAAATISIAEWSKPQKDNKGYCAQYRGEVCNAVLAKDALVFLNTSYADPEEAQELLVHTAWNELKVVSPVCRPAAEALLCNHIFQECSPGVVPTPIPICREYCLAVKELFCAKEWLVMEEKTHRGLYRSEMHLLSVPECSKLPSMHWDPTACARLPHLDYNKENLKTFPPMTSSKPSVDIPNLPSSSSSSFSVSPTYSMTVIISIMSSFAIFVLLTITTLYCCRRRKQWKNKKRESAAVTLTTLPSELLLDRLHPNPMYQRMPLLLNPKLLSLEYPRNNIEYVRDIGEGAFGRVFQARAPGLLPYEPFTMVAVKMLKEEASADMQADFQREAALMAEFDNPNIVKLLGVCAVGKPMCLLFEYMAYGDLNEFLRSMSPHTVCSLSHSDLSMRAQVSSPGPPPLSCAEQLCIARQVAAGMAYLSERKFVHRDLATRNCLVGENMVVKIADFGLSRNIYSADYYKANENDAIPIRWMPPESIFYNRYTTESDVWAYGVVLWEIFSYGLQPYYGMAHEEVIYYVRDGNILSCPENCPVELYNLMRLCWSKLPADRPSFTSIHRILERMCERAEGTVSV", "test": "Inhibition of Musk (unknown origin)"}, "[2]": {"molecular_target": "Tyrosine-protein kinase receptor UFO (Homo sapiens, UniProt P30530)", "test": "Inhibition of Axl (unknown origin)"}, "[3]": {"molecular_target": "Epithelial discoidin domain-containing receptor 1 (Homo sapiens, UniProt Q08345)", "test": "Inhibition of DDR1 (unknown origin)"}, "Ephrin type-A receptor 2": {"molecular_target": "Ephrin type-A receptor 2 (Homo sapiens, UniProt P29317)", "test": "Inhibition of EphA2 (unknown origin)"}, "Ephrin type-A receptor 5": {"molecular_target": "Ephrin type-A receptor 5 (Homo sapiens, UniProt P54756)", "sequence (P54756 whole entry)": "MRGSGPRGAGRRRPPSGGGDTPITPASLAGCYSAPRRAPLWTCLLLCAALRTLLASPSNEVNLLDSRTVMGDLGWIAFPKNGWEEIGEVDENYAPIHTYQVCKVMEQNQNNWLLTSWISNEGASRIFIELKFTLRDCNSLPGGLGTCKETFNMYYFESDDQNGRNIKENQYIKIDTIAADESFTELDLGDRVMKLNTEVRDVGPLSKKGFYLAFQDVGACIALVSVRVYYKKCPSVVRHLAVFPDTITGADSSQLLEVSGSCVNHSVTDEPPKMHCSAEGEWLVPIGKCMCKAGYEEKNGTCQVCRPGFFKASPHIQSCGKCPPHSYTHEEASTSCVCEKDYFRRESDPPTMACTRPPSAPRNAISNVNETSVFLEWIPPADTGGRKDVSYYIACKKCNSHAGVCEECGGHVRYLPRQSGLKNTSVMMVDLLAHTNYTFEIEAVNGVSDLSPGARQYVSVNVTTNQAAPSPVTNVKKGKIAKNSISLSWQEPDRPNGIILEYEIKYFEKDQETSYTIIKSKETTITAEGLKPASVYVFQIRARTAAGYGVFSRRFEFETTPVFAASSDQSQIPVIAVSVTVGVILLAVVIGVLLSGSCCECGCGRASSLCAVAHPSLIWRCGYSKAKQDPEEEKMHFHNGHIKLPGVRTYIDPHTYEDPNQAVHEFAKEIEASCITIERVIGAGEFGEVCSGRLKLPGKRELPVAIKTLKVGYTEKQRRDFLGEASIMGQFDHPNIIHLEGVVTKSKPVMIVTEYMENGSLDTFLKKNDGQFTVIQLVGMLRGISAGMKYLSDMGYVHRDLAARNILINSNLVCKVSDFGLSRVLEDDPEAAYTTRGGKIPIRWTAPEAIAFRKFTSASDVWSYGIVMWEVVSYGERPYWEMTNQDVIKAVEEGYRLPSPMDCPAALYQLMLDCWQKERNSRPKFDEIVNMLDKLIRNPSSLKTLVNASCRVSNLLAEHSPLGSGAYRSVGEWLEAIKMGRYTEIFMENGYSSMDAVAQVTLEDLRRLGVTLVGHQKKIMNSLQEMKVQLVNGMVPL", "test": "Inhibition of EphA5 (unknown origin)"}, "Ephrin type-A receptor 7": {"molecular_target": "Ephrin type-A receptor 7 (Homo sapiens, UniProt Q15375)", "sequence (Q15375 whole entry)": "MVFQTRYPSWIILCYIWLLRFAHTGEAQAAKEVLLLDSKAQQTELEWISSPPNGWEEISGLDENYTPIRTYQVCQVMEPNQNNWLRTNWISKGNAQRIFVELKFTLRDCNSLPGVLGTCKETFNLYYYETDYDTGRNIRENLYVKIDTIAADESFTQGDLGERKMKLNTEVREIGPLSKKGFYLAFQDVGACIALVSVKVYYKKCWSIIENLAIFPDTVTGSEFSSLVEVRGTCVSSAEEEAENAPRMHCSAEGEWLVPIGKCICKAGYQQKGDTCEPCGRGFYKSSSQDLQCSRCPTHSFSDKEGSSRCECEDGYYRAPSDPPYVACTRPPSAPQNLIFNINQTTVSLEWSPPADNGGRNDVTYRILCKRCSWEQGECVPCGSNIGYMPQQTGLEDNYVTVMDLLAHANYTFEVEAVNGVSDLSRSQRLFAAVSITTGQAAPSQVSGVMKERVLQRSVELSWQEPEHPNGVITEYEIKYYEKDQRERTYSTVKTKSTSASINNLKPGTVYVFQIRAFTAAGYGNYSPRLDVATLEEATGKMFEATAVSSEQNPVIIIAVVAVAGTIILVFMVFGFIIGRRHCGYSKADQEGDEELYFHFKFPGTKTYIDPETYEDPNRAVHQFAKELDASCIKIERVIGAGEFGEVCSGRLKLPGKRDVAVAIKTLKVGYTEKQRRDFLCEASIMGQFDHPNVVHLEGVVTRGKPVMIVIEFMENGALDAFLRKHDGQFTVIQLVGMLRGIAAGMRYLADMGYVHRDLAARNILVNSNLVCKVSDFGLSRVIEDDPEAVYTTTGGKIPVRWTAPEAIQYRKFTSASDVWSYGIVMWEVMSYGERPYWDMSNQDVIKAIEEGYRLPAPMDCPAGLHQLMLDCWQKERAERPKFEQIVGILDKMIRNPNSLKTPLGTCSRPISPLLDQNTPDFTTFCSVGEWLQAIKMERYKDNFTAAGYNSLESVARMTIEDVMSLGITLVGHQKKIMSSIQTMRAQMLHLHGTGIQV", "test": "Inhibition of EphA7 (unknown origin)"}, "[4]": {"molecular_target": "Receptor-type tyrosine-protein kinase FLT3 (Homo sapiens, UniProt P36888)", "test": "Inhibition of FLT3 (unknown origin)"}, "Angiopoietin-1 receptor": {"molecular_target": "Angiopoietin-1 receptor (Homo sapiens, UniProt Q02763)", "test": "Inhibition of Tie2 (unknown origin)"}, "[5]": {"molecular_target": "Cyclin-dependent kinase 14 (Homo sapiens, UniProt O94921)", "sequence (O94921 whole entry)": "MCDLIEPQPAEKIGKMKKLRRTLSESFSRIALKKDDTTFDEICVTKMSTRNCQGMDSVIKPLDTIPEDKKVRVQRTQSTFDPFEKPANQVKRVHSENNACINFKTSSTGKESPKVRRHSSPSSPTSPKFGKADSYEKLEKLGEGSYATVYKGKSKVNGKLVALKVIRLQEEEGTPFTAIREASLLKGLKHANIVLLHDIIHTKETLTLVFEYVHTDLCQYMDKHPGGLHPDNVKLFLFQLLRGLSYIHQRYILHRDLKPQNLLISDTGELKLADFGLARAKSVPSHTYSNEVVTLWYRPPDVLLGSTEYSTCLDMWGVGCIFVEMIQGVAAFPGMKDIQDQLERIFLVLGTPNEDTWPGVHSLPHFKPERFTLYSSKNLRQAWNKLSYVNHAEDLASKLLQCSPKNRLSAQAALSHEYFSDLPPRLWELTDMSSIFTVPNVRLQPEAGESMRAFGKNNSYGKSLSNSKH", "test": "Inhibition of CDK14 (unknown origin)"}, "[6]": {"molecular_target": "Tyrosine-protein kinase HCK (Homo sapiens, UniProt P08631)", "test": "Inhibition of Hck (unknown origin)"}, "[7]": {"molecular_target": "Vascular endothelial growth factor receptor 2 (Homo sapiens, UniProt P35968)", "sequence (P35968 whole entry)": "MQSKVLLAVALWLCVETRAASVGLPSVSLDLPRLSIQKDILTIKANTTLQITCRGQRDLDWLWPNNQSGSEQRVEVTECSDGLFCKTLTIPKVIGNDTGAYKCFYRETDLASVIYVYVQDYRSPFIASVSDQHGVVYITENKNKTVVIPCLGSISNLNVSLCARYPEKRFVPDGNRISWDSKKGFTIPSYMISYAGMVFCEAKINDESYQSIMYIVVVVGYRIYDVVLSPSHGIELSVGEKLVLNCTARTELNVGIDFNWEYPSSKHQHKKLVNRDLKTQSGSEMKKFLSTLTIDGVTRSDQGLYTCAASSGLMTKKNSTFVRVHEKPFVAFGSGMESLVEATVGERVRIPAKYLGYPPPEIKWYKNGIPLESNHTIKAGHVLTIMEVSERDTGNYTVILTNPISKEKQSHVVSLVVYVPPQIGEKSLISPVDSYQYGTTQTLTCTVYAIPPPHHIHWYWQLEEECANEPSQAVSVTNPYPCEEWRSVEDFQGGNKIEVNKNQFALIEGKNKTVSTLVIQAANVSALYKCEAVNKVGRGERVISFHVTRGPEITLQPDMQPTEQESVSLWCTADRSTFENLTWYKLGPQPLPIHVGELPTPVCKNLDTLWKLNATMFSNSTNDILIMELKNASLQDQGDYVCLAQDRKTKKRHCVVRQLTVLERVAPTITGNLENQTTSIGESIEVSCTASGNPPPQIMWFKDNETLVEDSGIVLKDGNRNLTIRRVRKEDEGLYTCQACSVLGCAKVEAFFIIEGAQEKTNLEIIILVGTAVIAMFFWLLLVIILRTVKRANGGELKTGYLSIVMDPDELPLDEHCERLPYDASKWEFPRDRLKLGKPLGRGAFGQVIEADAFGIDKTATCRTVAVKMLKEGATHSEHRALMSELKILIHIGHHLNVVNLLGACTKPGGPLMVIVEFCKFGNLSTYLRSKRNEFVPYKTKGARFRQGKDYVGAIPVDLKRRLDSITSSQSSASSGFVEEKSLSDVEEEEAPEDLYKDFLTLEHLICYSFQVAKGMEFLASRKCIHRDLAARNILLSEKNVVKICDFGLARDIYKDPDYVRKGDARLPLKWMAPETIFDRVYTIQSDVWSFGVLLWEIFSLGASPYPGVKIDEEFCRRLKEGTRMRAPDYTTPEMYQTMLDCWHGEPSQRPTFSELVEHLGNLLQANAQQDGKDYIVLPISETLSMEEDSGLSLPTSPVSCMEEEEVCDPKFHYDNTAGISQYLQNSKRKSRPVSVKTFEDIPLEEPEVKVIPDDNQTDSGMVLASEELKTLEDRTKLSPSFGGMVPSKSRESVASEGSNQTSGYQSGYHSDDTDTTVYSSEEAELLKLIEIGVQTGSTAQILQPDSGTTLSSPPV", "test": "Inhibition of KDR (unknown origin)"}, "[8]": {"molecular_target": "Tyrosine-protein kinase Mer (Homo sapiens, UniProt Q12866)", "test": "Inhibition of Mer (unknown origin)"}, "[9]": {"molecular_target": "Ribosomal protein S6 kinase", "test": "Inhibition of P70S6K (unknown origin)", "type": "protein assay, Homo sapiens"}, "[10]": {"molecular_target": "Proto-oncogene tyrosine-protein kinase receptor Ret (Homo sapiens, UniProt P07949)", "test": "Inhibition of RET (unknown origin)"}, "[11]": {"molecular_target": "Vascular endothelial growth factor receptor 3 (Homo sapiens, UniProt P35916)", "test": "Inhibition of FLT4 (unknown origin)"}, "[12]": {"test": "Half life in ICR mouse at 2.0 mg/kg, iv measured upto 24 hrs by LC-MS/MS analysis", "type": "ADME, organism-based", "details": "in vivo"}, "[13]": {"test": "Tmax in ICR mouse at 2.0 mg/kg, iv measured upto 24 hrs by LC-MS/MS analysis", "type": "ADME, organism-based", "details": "in vivo"}, "[14]": {"test": "Cmax in ICR mouse at 2.0 mg/kg, iv measured upto 24 hrs by LC-MS/MS analysis", "type": "ADME, organism-based", "design": "dose 2 mg/kg, time < 24 hrs, route iv", "details": "in vivo"}, "[15]": {"test": "AUC (0 to t) in ICR mouse at 2.0 mg/kg, iv measured upto 24 hrs by LC-MS/MS analysis", "type": "ADME, organism-based", "design": "time < 24 hrs, dose 2 mg/kg, route iv", "details": "in vivo"}, "[16]": {"test": "AUC (0 to infinity) in ICR mouse at 2.0 mg/kg, iv measured upto 24 hrs by LC-MS/MS analysis", "type": "ADME, organism-based", "design": "dose 2 mg/kg, time < 24 hrs, route iv", "details": "in vivo"}, "[17]": {"test": "Clearance in ICR mouse at 2.0 mg/kg, iv measured upto 24 hrs by LC-MS/MS analysis", "type": "ADME, organism-based", "details": "in vivo"}, "[18]": {"test": "Half life in ICR mouse at 10 mg/kg, po measured upto 24 hrs by LC-MS/MS analysis", "type": "ADME, organism-based", "details": "in vivo"}, "[19]": {"test": "Tmax in ICR mouse at 10 mg/kg, po measured upto 24 hrs by LC-MS/MS analysis", "type": "ADME, organism-based", "details": "in vivo"}, "[20]": {"test": "Cmax in ICR mouse at 10 mg/kg, po measured upto 24 hrs by LC-MS/MS analysis", "type": "ADME, organism-based", "design": "dose 10 mg/kg, time < 24 hrs, route po", "details": "in vivo"}, "[21]": {"test": "AUC (0 to t) in ICR mouse at 10 mg/kg, po measured upto 24 hrs by LC-MS/MS analysis", "type": "ADME, organism-based", "design": "time < 24 hrs, dose 10 mg/kg, route po", "details": "in vivo"}, "[22]": {"test": "AUC (0 to infinity) in ICR mouse at 10 mg/kg, po measured upto 24 hrs by LC-MS/MS analysis", "type": "ADME, organism-based", "design": "dose 10 mg/kg, time < 24 hrs, route po", "details": "in vivo"}, "[23]": {"test": "Oral bioavailability in ICR mouse at 10 mg/kg measured upto 24 hrs by LC-MS/MS analysis", "type": "ADME, organism-based", "details": "in vivo"}, "[24]": {"test": "Toxicity in CB17-SCID mouse assessed as drug tolerance at 50 mg/kg/day administered via oral gavage measured every 2 days for 12 days", "type": "organism-based", "details": "in vivo, 288 h, time 12 day"}, "[25]": {"test": "Toxicity in CB17-SCID mouse assessed as mortality at 50 mg/kg/day administered via oral gavage measured every 2 days for 12 days", "type": "organism-based", "details": "in vivo, 288 h, time 12 day"}, "[26]": {"test": "Toxicity in CB17-SCID mouse assessed as effect on body weight loss at 50 mg/kg/day administered via oral gavage measured every 2 days for 12 days", "type": "organism-based", "details": "in vivo, 288 h, time 12 day"}}, "note": "pIC50: −log10 of the molar value."}
{"compound": "Cc1c2cc(cc1C(=O)Nc1cc(CN3CCN(C)CC3)cc(C3CC3)c1)OCCCCCCCNC(=O)c1ccc3ncc(n3n1)C#C2", "values": [{"measurement": "pIC50", "setting": "[1]", "value": 7.89}, {"measurement": "pIC50", "setting": "[2]", "value": 5.81}, {"measurement": "pIC50", "setting": "[3]", "value": 7.62}, {"measurement": "pIC50", "setting": "Ephrin type-A receptor 2", "value": 7.89}, {"measurement": "pIC50", "setting": "Ephrin type-A receptor 5", "value": 7.64}, {"measurement": "pIC50", "setting": "Ephrin type-A receptor 7", "value": 8.75}, {"measurement": "pIC50", "setting": "[4]", "value": 7.93}, {"measurement": "pIC50", "setting": "Angiopoietin-1 receptor", "value": 7.18}, {"measurement": "pIC50", "setting": "[5]", "value": 6.81}, {"measurement": "pIC50", "setting": "[6]", "value": 6.60}, {"measurement": "pIC50", "setting": "[7]", "value": 7.13}, {"measurement": "pIC50", "setting": "[8]", "value": 7.59}, {"measurement": "IC50", "setting": "[9]", "value": 66.82, "unit": "nM"}, {"measurement": "pIC50", "setting": "[10]", "value": 8.13}, {"measurement": "pIC50", "setting": "[11]", "value": 7.23}, {"measurement": "half-life", "setting": "[12]", "value": 1.92, "unit": "h"}, {"measurement": "Tmax", "setting": "[13]", "value": 4.8, "unit": "min"}, {"measurement": "Cmax", "setting": "[14]", "value": 626, "unit": "ng/mL"}, {"measurement": "AUC(0-t) at 24 h", "setting": "[15]", "value": 1200, "unit": "ng·h/mL"}, {"measurement": "AUC(0-inf)", "setting": "[16]", "value": 1280, "unit": "ng·h/mL"}, {"measurement": "clearance", "setting": "[17]", "value": 26.7, "unit": "mL/min/kg"}, {"measurement": "half-life", "setting": "[18]", "value": 4.3, "unit": "h"}, {"measurement": "Tmax", "setting": "[19]", "value": 2.17, "unit": "h"}, {"measurement": "Cmax", "setting": "[20]", "value": 95.2, "unit": "ng/mL"}, {"measurement": "AUC(0-t) at 24 h", "setting": "[21]", "value": 501, "unit": "ng·h/mL"}, {"measurement": "AUC(0-inf)", "setting": "[22]", "value": 707, "unit": "ng·h/mL"}, {"measurement": "bioavailability", "setting": "[23]", "value": 11, "unit": "%"}, {"measurement": "Activity", "setting": "[24]", "value": "Non-Toxic"}, {"measurement": "Activity", "setting": "[25]", "value": "Non-Toxic"}, {"measurement": "Activity", "setting": "[26]", "value": "Non-Toxic"}]}
